One test has as its target ROCK1 (Homo sapiens (Human), UniProt Q13464). Briefly: Z-lyte FRET assay to measure kinase inhibition, ROCK1. In kind it is biochemical.
Another test concerns the target ROCK2 (Homo sapiens (Human), UniProt O75116). Briefly: Z-lyte FRET assay to measure kinase inhibition, ROCK2. In kind it is biochemical.

Chain of ROCK1 (Q13464 whole entry): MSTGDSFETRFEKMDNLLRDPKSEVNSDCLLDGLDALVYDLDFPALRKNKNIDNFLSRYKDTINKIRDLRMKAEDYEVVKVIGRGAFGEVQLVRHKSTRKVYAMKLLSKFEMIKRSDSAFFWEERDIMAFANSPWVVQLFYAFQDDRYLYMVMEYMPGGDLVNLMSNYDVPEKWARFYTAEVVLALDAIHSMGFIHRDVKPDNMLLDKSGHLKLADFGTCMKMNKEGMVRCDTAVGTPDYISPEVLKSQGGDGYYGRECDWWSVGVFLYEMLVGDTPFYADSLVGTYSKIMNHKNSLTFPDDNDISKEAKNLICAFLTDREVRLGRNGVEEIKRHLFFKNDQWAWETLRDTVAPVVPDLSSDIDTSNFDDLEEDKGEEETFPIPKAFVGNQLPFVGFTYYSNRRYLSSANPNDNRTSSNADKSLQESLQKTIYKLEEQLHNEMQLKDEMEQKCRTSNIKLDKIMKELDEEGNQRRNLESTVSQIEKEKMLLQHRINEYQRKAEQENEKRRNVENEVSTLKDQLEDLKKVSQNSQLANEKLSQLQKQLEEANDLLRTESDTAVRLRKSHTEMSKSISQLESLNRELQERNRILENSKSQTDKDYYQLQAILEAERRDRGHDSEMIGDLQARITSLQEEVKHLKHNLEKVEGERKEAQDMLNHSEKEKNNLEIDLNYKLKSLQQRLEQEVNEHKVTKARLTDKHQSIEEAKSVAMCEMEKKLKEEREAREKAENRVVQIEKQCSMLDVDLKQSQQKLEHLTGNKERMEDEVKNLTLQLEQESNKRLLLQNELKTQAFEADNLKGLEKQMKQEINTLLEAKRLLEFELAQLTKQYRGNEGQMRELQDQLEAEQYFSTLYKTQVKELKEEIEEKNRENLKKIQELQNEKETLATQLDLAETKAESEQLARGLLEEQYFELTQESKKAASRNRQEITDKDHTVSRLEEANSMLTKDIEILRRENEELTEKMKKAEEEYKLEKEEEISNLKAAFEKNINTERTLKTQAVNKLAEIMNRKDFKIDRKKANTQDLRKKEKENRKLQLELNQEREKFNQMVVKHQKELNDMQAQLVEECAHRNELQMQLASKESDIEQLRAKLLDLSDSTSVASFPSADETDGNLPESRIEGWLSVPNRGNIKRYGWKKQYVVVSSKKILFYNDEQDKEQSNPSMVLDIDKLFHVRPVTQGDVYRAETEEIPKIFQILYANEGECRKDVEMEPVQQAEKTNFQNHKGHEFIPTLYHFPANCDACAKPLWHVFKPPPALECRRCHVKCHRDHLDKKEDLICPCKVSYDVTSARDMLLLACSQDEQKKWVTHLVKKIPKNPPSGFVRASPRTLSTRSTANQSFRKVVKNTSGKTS
Chain of ROCK2 (O75116 whole entry, species assumed): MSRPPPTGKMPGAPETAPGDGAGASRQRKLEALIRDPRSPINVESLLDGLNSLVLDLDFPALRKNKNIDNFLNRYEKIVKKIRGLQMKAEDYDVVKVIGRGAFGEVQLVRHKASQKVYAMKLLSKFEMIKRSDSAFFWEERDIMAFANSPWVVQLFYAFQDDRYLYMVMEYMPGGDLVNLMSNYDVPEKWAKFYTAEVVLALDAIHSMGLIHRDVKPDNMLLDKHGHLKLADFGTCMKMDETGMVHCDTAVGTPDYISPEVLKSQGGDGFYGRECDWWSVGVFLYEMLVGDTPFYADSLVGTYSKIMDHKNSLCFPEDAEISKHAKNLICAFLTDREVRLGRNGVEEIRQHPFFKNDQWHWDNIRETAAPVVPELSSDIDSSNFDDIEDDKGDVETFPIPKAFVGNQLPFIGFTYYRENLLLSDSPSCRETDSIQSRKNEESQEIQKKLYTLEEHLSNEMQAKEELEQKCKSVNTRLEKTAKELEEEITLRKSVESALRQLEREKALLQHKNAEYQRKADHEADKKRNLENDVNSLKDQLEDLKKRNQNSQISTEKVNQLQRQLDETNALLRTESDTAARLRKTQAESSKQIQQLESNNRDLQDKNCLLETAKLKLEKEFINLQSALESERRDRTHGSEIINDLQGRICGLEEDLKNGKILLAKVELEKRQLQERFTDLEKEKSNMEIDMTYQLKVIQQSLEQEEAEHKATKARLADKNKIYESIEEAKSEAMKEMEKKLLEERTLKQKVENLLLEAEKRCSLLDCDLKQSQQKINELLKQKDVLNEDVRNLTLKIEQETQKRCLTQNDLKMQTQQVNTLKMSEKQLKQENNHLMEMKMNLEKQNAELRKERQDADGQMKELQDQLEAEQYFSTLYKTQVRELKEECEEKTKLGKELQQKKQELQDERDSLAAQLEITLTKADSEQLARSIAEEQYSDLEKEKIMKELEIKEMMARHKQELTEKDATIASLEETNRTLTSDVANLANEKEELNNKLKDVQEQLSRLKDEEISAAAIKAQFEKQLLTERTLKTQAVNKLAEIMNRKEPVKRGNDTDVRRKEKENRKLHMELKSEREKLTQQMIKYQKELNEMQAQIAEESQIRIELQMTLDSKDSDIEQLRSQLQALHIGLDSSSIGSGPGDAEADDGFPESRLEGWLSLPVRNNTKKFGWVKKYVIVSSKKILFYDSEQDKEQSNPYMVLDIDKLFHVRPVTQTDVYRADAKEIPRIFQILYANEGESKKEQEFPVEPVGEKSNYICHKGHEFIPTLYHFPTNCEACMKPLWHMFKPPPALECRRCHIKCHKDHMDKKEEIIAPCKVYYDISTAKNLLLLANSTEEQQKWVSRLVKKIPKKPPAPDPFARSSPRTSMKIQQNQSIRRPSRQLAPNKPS

The term IC50 denotes the concentration needed to halve the response being measured. Regarding `CC(NC(=O)c1cccc2c1ccn2-c1ccnc(N)n1)c1ccccc1` (stereo not drawn) [drawing 178], the “ROCK1 % inhibition @ 50 μM” value on ROCK1 (50 μM compound) came to 105 ± 1%. The IC50 at ROCK1 (read-out: ROCK1 IC50) was 120 ± 20 nM; against ROCK2, 60 ± 20 nM.

These data come from patent US9616064B2, “Rho kinase inhibitors and methods of use” (H. LEE MOFFITT CANCER CENTER AND RESEARCH INSTITUTE, INC., priority 2011, dated 2017).
